Measured values published in patent EP0593348A1, “Thiazolidine dione derivatives, process for their preparation and pharmaceutical compositions containing them” (ADIR ET COMPAGNIE, priority 1992, dated 1994).
Like-named read-outs stand apart in the source and are kept apart here. Each block holds one compound with its values, some of them ahead of it.

Tests used:
[1] = system: souris ob/ob; assay: Hypoglycaemic activity in a non-insulin-dependent diabetes (NIDDM) model, ob/ob mice; type: in vivo; conditions: oral, 4 days, base 100, reached at the dose given
Excerpt: A/ Etude de l'activité des composés de l'invention sur un modèle de diabète non insulino-dépendant (NIDDM).
Les animaux (souris ob/ob) sont traités chaque jour, pendant 4 jours, en administrant par voie orale, les composés de l'invention en suspension dans une solution à 20 % de gomme du Sénégal. Avant et après traitement, soit à J0 et à J5, le sang est prélevé par ponction du sinus orbital et la glycémie est déterminée. Le tableau 1 présente les doses des différents produits à administrer pour obtenir le même effet hypoglycémiant (base 100).

[2] = system: rats Zucker Fa/Fa mâles; assay: Model of reduced glucose tolerance with hyperinsulinaemia and hyperlipaemia, male Zucker Fa/Fa rats; type: in vivo; conditions: 5 mg/kg/jour oral for 10 days; for Glycémie (%) / Plasma insuline (%): blood on day 11, control = 100; for Poids ΔP% J₁₁-J₁: control = +100; for AGL (%): plasma free fatty acids; for AGL (%) / TG (%): control = 100; for TG (%): plasma triglycerides
Protocol: B/ Etude de l'activité des composés de l'invention sur un modèle de tolérance au glucose diminuée associée à une hyperinsulinémie et une hyperlipémie .
Les animaux (rats Zucker Fa/Fa mâles) sont traités, chaque jour, pendant 10 jours, en administrant, par voie orale, les composés de l'invention à la dose de 5 mg/kg/jour en suspension dans une solution à 20 % de gomme du Sénégal. Le 11ème jour, les animaux sont sacrifiés et le sang recueilli afin de déterminer la glycémie, les triglycérides plasmatiques et l'insuline immuno-réactive. D'autre part, les animaux sont pesés avant et après traitement.
Dans ces conditions, les composés de l'invention n'ont pas d'influence sur le taux de glucose circulant mais diminuent le taux de triglycérides (TG) et d'acides gras libres plasmatiques (AGL) ainsi que celui de l'insuline immuno-réactive. Cette activité est égale ou supérieure à celle d'autres dérivés de thiazolidinedione de référence.

[3] = system: rats SDCD mâles; conditions: rat, in vivo
Excerpt: Administrés per os à des rats SDCD mâles pesant 175 g les produits sont sans effet sur les éléments figurés du sang et le volume plasmatique, à la différence de la pioglitazone : […]

SMILES: O=C1NC(=O)C(Cc2ccc(CCNC(=O)c3ccccc3O)cc2)S1 (racemic) [Exemple 3, (R,S) 5-{4-[2-(salicyloyamino) éthyl]benzyl} thiazolidine-2,4-dione]
Pouvoir hypoglycémiant [1]: 100

SMILES: COc1ccc(OC)c(C(=O)NCCc2ccc(CC3SC(=O)NC3=O)cc2)c1 (racemic) [Exemple 7, (R,S) 5-{4-[2-(2,5-diméthoxybenzamido)éthyl]benzyl}thiazolidine-2,4-dione]
Pouvoir hypoglycémiant [1]: 100

SMILES: Cc1cccc(C)c1C(C(=O)NCCc1ccc(CC2SC(=O)NC2=O)cc1)c1c(C)cccc1C (racemic) [Exemple 46, (R,S) 5-{4-[2-(2,2-bis(2,6-diméthylphényl)acétylamino)éthyl]benzyl} thiazolidine-2,4-dione]
Pouvoir hypoglycémiant [1]: 100

SMILES: O=C1NC(=O)C(Cc2ccc(CCN3C(=O)c4ccccc4C3=O)cc2)S1 (stereo not drawn) [Exemple 4, 5-{4-[2-(phtalimido)éthyl]benzyl}thiazolidine-2,4-dione]
Pouvoir hypoglycémiant [1]: 100
Glycémie (%) [2]: 108%
Plasma insuline (%) [2]: 72%
Poids ΔP% J₁₁-J₁ [2]: +132%
AGL (%) [2]: 108%
TG (%) [2]: 78%

SMILES: O=C(CC(c1ccccc1)c1ccccc1)NCCc1ccc(CC2SC(=O)NC2=O)cc1 (racemic) [Exemple 6, (R,S) 5-{4-[2-(3,3-diphénylpropionamido)éthyl]benzyl}thiazolidine-2,4-dione]
Pouvoir hypoglycémiant [1]: 100

Globules blancs ([3]; 100 mg/kg): - 46%
Globules rouges ([3]; 100 mg/kg): - 37%
Hématocrite ([3]; 100 mg/kg): - 26%
Hémoglobine ([3]; 100 mg/kg): - 29%
SMILES: CCc1ccc(CCOc2ccc(CC3SC(=O)NC3=O)cc2)nc1 (stereo not drawn) [Pioglitazone, reference compound]
Glycémie (%) [2]: 115%
Plasma insuline (%) [2]: 49%
Poids ΔP% J₁₁-J₁ [2]: +320%
AGL (%) [2]: 57%
TG (%) [2]: 35%

SMILES: O=C1NC(=O)C(Cc2ccc(CCNC(=O)c3cnccn3)cc2)S1 (racemic) [Exemple 25, (R,S) 5-{4-[2-(pyrazin-2-ylcarbonylamino)éthyl]benzyl}thiazolidine-2,4-dione]
Pouvoir hypoglycémiant [1]: 100

SMILES: Cc1cc(C(=O)NCCc2ccc(CC3SC(=O)NC3=O)cc2)no1 (racemic) [Exemple 15, (R,S) 5-{4-[2-(5-méthyl 1,2-oxazol-3-ylcarbonylamino)éthyl]benzyl} thiazolidine-2,4-dione]
Pouvoir hypoglycémiant [1]: 100

SMILES: CC1(COc2ccc(CC3SC(=O)NC3=O)cc2)CCCCC1 (stereo not drawn) [Ciglitazone, reference compound]
Pouvoir hypoglycémiant [1]: 100

SMILES: CN(C)c1ccccc1C(=O)NCCc1ccc(CC2SC(=O)NC2=O)cc1 (racemic) [Exemple 28, (R,S) 5-{4-[2-(2-diméthylaminobenzamido)éthyl]benzyl}thiazolidine-2,4-dione]
Pouvoir hypoglycémiant [1]: 100
Glycémie (%) [2]: 99%
Plasma insuline (%) [2]: 75%
Poids ΔP% J₁₁-J₁ [2]: +103%
AGL (%) [2]: 110%
TG (%) [2]: 89%

SMILES: COc1ccc(C=CC(=O)NCCc2ccc(CC3SC(=O)NC3=O)cc2)cc1OC (racemic) [Exemple 43, (R,S) 5-{4-[2-(3-(3,4-diméthoxyphényl)prop-2-énoylamino)éthyl]benzyl} thiazolidine-2,4-dione]
Pouvoir hypoglycémiant [1]: 100

SMILES: COc1ccc(Cl)cc1C(=O)NC[C@@H](O)c1ccc(C[C@H]2SC(=O)NC2=O)cc1 [Exemple 40, (R,S) 5-{4-[1-hydroxy-2-(5-chloro-2-méthoxybenzamido)éthyl]benzyl} thiazolidine-2,4-dione]
Pouvoir hypoglycémiant [1]: 100

SMILES: O=C1NC(=O)C(Cc2ccc(CCNC(=O)c3ccco3)cc2)S1 (racemic) [Exemple 14, (R,S) 5-{4-[2-(fur-2-ylcarbonylamino)éthyl]benzyl}thiazolidine-2,4-dione]
Pouvoir hypoglycémiant [1]: 100

SMILES: O=C1NC(=O)C(Cc2ccc(CCNC(=O)C3c4ccccc4Oc4ccccc43)cc2)S1 (racemic) [Exemple 45, (R,S) 5-{4-[2-(xanthén-9-ylcarbonylamino)éthyl]benzyl}thiazolidine-2,4-dione]
Pouvoir hypoglycémiant [1]: 100

SMILES: CC(C)(C)c1cc(OCCc2ccc(CC3SC(=O)NC3=O)cc2)cc(C(C)(C)C)c1O (racemic) [Exemple 41, (R,S) 5-{4-[2-(3,5-di-tert-butyl-4-hydroxyphénoxy)éthyl]benzyl} thiazolidine-2,4-dione]
Pouvoir hypoglycémiant [1]: 100

SMILES: O=C1NC(=O)C(Cc2ccc(CCNC(=O)c3cccs3)cc2)S1 (racemic) [Exemple 35, (R,S) 5-{4-[2-(thién-2-ylcarbonylamino)éthyl]benzyl}thiazolidine-2,4-dione]
Pouvoir hypoglycémiant [1]: 100

SMILES: COc1ccc(Cl)cc1C(=O)NCc1ccc(CC2SC(=O)NC2=O)cc1 (racemic) [Exemple 36, (R,S) 5-{4-[(5-chloro-2-méthoxybenzamido)méthyl]benzyl}thiazolidine-2,4-dione]
Pouvoir hypoglycémiant [1]: 100

Globules blancs ([3]; 100 mg/kg): - 6%
Globules rouges ([3]; 100 mg/kg): - 2%
Hématocrite ([3]; 100 mg/kg): + 11%
Hémoglobine ([3]; 100 mg/kg): + 11%
Globules blancs ([3]; 250 mg/kg): - 4%
Globules rouges ([3]; 250 mg/kg): - 11%
Hématocrite ([3]; 250 mg/kg): + 4%
Hémoglobine ([3]; 250 mg/kg): + 4%
SMILES: COc1ccc(Cl)cc1C(=O)NCCc1ccc(CC2SC(=O)NC2=O)cc1 (stereo not drawn) [Exemple 1, 5-{4-[2-(2-méthoxy 5-chlorobenzamido) éthyl]benzyl} thiazolidine 2,4-dione]
Pouvoir hypoglycémiant [1]: 100
Glycémie (%) [2]: 113%
Plasma insuline (%) [2]: 71%
Poids ΔP% J₁₁-J₁ [2]: +112%
AGL (%) [2]: 83%
TG (%) [2]: 94%

SMILES: COc1ccc(Cl)cc1C(=O)NCCCc1ccc(CC2SC(=O)NC2=O)cc1 (racemic) [Exemple 33, (R,S) 5-{4-[3-(2-méthoxy-5-chlorobenzamido)propyl]benzyl}thiazolidine-2,4-dione]
Pouvoir hypoglycémiant [1]: 100

SMILES: O=C(C=Cc1ccc2c(c1)OCO2)NCCc1ccc(CC2SC(=O)NC2=O)cc1 (racemic) [Exemple 44, (R,S) 5-{4-[2-(3-(3,4-méthylènedioxyphényl)prop-2-énoylamino)éthyl]benzyl} thiazolidine-2,4-dione]
Pouvoir hypoglycémiant [1]: 100
